Patent US9399145B2, “Nanoscale neuromodulating platform for retina neuron activation apparatus and method” (The Board of Trustees of the University of Illinois, priority 2005, dated 2016)

Tests used:
[1] = tested on: GABAARs of cerebellar PNs; experiment: Whole-cell voltage clamp of cerebellar Purkinje neurons in slices, GABA-evoked currents with UV/blue light; format: cell-based, mouse; details: 10 μM GABA + 30 μM MPC088 by pressure pipette
Description: To evaluate the efficacy of MPC088 in GABAAR-expressing cells in situ, whole-cell voltage-clamp experiments were conducted on Purkinje neurons (PNs) in parasagittal slices from mouse cerebellum (Häusser et al. (1997); Smith et al. (2003)) (FIG. 40). […] The cell was flashed with UV light (1 s, shuttered from a mercury arc lamp), then blue light (1 s, from a 470 nm LED), and then again with UV light (1 s). […] The magnitude of the UV-to-blue transition was calculated as (B-UV1)/UV1; that of the blue-to-UV transition was calculated as (UV2-B)/UV2. […] For the negative control experiments (i.e., those involving exposure to vehicle or propofol alone) in which no light-evoked current was detectable, current was measured for identical epochs at the terminations of the light pulses.
Experiments on cerebellar PNs employed acute slices obtained from cerebella of 16-30 day-old C57/BL6 mice (Charles River Laboratories). After induction of deep anesthesia with isoflurane, mice were decapitated, and the cerebellum vermis was removed and placed in an ice-cold cutting solution containing (in mM): 85 NaCl, 2.5 KCl, 0.5 CaCl2, 4 MgCl2, 1.25 NaH2PO4, 24 NaHCO3, 25 glucose, and 75 sucrose. A Leica VT1000 vibratome was used to cut 250 μm thick, sagittal slices from the cerebellar vermis. […]

Hydrophobicity (log P) = format: physicochemical
[2] = tested on: GABAARs of isolated bipolar cells of rat retina; experiment: Whole-cell recording of isolated retinal bipolar cells; format: cell-based
From the text: Data obtained with trans-MPC088 indicated substantial GABAAR potentiating activity by trans-MPC088 (FIG. 61).

[3] = Spectrophotometric and NMR analysis of photoisomerization; format: physicochemical
Description: UV and visible light sources of the electrophysiological apparatus were used for the spectrophotometric and NMR experiments. MPC088 samples were analyzed as DMSO solutions in a quartz cuvette (spectrophotometry) and a DMSO-d6 solution in a quartz NMR tube.
To test the stability of cis-MPC088 in darkness, a preparation of 30 μM MPC088 in oocyte Ringer solution that had been converted to predominantly cis form by a 5-min UV illumination was spectrophotometrically analyzed. The sample was subsequently kept in darkness at room temperature.
The UV-induced decrease in membrane current was analyzed by fitting a simple exponential decay function to the waveforms obtained and determining the exponential time constant (τ).

[4] = tested on: GABAARs of retinal ganglion cells; experiment: Whole-cell patch clamp of isolated retinal ganglion cells; format: cell-based, rat; details: for peak amplitude of direct response relative to response to 200 μM GABA: alone
Description: To test whether native neuronal GABAARs respond to MPC088, retinal ganglion cells (RGCs), a cell type known to abundantly express GABAARs (Ishida et al. (1988); Fischer et al. (1998); Wässle et al. (1998); Rotolo et al. (2003)), were examined. […] The cis-dominant preparation was obtained by pre-treating trans-dominant MPC088 with UV light for 5 min.
Inset: Aggregate data for direct activation by MPC088.
Experiments were conducted on enzymatically dissociated ganglion cells obtained from adult Sprague-Dawley rats (male and female, 6-16 weeks of age) (Charles River Laboratories, Wilmington, Mass.). Procedures for euthanasia, isolation of the retina, and the dissociation of retinal cells were as described previously (Ramsey et al. (2007) except that the period of retinal cell dissociation was shortened from 40 min to 20 min. Isolated ganglion cells were identified on the basis of their morphological appearance and the presence of a large voltage-gated sodium current. Whole-cell patch-clamp techniques similar to those described (Ramsey et al. (2007)) were used to record membrane current responses to test agents. The patch pipette with a resistance of 8-12 MΩ was pulled in two stages using a micro-electrode puller (Model PP830, Narishige Group, Tokyo, Japan). The pipette was filled with an intracellular solution containing 95 mM CsCH3SO3, 20 mM TEA-Cl, 10 mM glutamic acid, 1 mM BAPTA, 10 mM HEPES, 8 mM phosphocreatine di(tris), 1 mM MgATP and 0.2 mM Na2GTP; pH adjusted to 7.2 with CsOH. Cells were clamped at 0 mV (Axopatch 200B amplifier; Axon Instruments), and experimental runs were controlled by pCLAMP system software (Axon Instruments). Electrophysiological data were obtained in response to test compounds dissolved in physiological saline (Ringer solution) that consisted of 135 mM NaCl, 5 mM KCl, 2 mM CaCl2, 2 mM MgCl2, 10 mM glucose, and 5 mM HEPES, pH 7.4. Supplementation of aqueous test solutions with MPC088 was carried out by adding an aliquot of a stock solution containing the compound dissolved in dimethyl sulfoxide (DMSO). In all experiments, the amount of carrier DMSO present in the applied test solution was <1% (v/v). Test solutions were delivered from separate reservoirs by a multi-channel perfusion system. The same UV-LED used in the oocyte experiments was used for UV illumination of MPC088-supplemented test solutions. For preparation of cis-dominant MPC088, the test solution of initially trans-dominant compound underwent a 5-min UV illumination prior to its placement in the perfusion reservoir. All preparative procedures were performed in the dark, and the reservoirs and perfusion lines were light-protected with aluminum foil. As in the oocyte experiments, data were analyzed with Clampfit and plotted with Origin. Unless otherwise stated, numerical data from replicate experiments are presented as mean±SD, and all statistical analyses of data obtained from oocytes and from retinal ganglion cells employed a two-sample t-test.

α1β3(N265M)γ2 GABAARs = target: T1, α1β3(N265M)γ2 GABAARs (UniProt P28472+P62813, N290M); experiment: Two-electrode voltage clamp of α1β3(N265M)γ2 GABAAR-expressing oocytes; format: cell-based; details: 1 μM trans-MPC088 with 3 μM GABA (~EC2)
T1 construct: expressed in transfected cells; host or cells: Xenopus oocytes
Description: (§1) The activity of trans-dominant MPC088 was also tested at receptors containing the β-subunit substitution N265M, a mutation that markedly reduces the action of propofol both in vitro and in vivo (Jurd et al. (2003); Siegwart et al. (2002)). […] For each receptor type, illustrated responses are representative data obtained from a single oocyte.

α1β3γ2 GABAAR = target: T2, α1β3γ2 GABAAR (UniProt P28472+P62813); experiment: Two-electrode voltage clamp of α1β3γ2 GABAAR-expressing oocytes; format: cell-based; details: 1 μM trans-MPC088 with 1 μM GABA (~EC3)
T2 construct: expressed in transfected cells; host or cells: Xenopus oocytes
From the text: Propofol is known to modulate GABAA receptors that contain a β subunit. […] Data in each group was obtained from 4 oocytes. […] Aggregate concentration-response data was also obtained from α1β3γ2 (squares) and α4β3δ (circles) receptors with trans-dominant MPC088 alone (FIG. 37b). Data was similarly normalized to the saturating GABA response obtained from each oocyte. Results for α1β2γ2 GABAARs in a and b (triangles) were reproduced from those of FIGS. 35c and 36b, respectively.
as §1

α4β3δ GABAAR = target: T3, α4β3δ GABAAR (Homo sapiens, UniProt P28472+P48169); experiment: Two-electrode voltage clamp of α4β3δ GABAAR-expressing oocytes; format: cell-based
T3 construct: expressed in transfected cells; host or cells: Xenopus oocytes
From the text: Propofol is known to modulate GABAA receptors that contain a β subunit. […] Data in each group was obtained from 4 oocytes.

[5] = 2.0 mM in DMSO-d6, before illumination
[6] = after UV illumination for 5 min
[7] = after UV, then visible light for 10 min

CC(C)c1cc(CCCC(=O)NCc2ccc(/N=N/c3ccc(C(=O)NCCN)cc3)cc2)cc(C(C)C)c1O [MPC088, (E)-N-(2-Aminoethyl)-4-((4-((4-(4-hydroxy-3,5-diisopropylphenyl)butanamido)methyl)phenyl)diazenyl)benzamide]
mean ratio of absolute current magnitude in response to blue→UV/UV→blue [1]: 1.00±0.01 | logP (Hydrophobicity (log P)): > 6 | potentiating factor (peak amplitude relative to the 10 μM GABA response) ([2]; 5 μM with 10 μM GABA and 100 μM TPMPA): 1.73±0.01 | potentiating factor (peak amplitude relative to the 10 μM GABA response) ([2]; 15 μM with 10 μM GABA and 100 μM TPMPA): 3.26±0.42 | cis-isomer content (1H NMR) [3, 5]: 6% | trans-isomer content (1H NMR) [3, 5]: 94% | time constant of absorbance change at 338 nm ([3]; UV light, nominal intensity): 1.7 ± 0.3 s | cis-isomer content (1H NMR) [3, 6]: 91% | trans-isomer content (1H NMR) [3, 6]: 9% | cis-isomer content (1H NMR) [3, 7]: 19% | trans-isomer content (1H NMR) [3, 7]: 81% | time constant of absorbance change at 338 nm ([3]; reduced-intensity UV light (10% of nominal)): 22 ± 3 s | time constant of absorbance change at 338 nm ([3]; visible light): 36 ± 2 s | potentiation of the response elicited by 2 μM GABA ([4]; 10 μM trans-dominant): approximately 5 fold | peak amplitude of direct response relative to response to 200 μM GABA ([4]; 30 μM trans-dominant): 5% | peak amplitude of direct response relative to response to 200 μM GABA ([4]; 60 μM trans-dominant): 43±9% | reduction of agonist activity by UV pre-treatment ([4]; 60 μM, UV pre-treated (cis-dominant) vs trans-dominant): 88±6% | response enhancement (α1β3(N265M)γ2 GABAARs): 2.9±0.8 fold | response enhancement (α1β3γ2 GABAAR): 4.4±1.3 fold | plateau of response function relative to response with high GABA concentration (α4β3δ GABAAR; co-applied 50 nM GABA (~EC8)): ~42% | direct agonist activity (α4β3δ GABAAR; compound alone): much lower than those at α1β3γ2 and α1β2γ2
